“Also recorded” adds a separate entry of the source.
Columns and labels:
[1] = system: Plasmodium berghei; assay: Sporozoite infection assay, P. berghei in Hepa1-6 cells; type: cell-based
[2] = system: Plasmodium yoelii; assay: Sporozoite development assay, P. yoelii in HepG2-CD81 cells; type: cell-based
Protocol: (§1) Anopheles stephensi mosquitoes were fed on mice infected with Plasmodium yoelii 17XNL parasites. On day 14 post bloodmeal, salivary glands were harvested, homogenized, sporozoite number was determined using a hemocytometer and the indicated number of sporozoites was added to cell monolayers, Plasmodium falciparum sporozoites were generated by membrane feeding An. stephensi mosquitoes using gametocyte cultures generated in vitro.
(§2) HepG2-CD81 (14) cells were maintained in DMEM supplemented with 10% fetal calf serum and 1 mM glutamine (DMEM/FCS), mAb 2E6 was used for development assays and is directed against Plasmodium Hsp 70 (15) and mAb 2A10 is directed against the repeat region of P. falciparum CSP and was used for invasion assays.
(§3) 5×10^5 HepG2-CD81 cells were plated on collagen coated Lab-Tek wells and allowed to adhere overnight. The following day, cells were preincubated with 400 uM of compound for 30 minutes at 37° C. Controls were pre-incubated with DMSO at the same concentration in which it was found in the compound solutions. 10^5 sporozoites were added to each well and in the case of P. falciparum, incubated for 1.5 hours and scored for invasion whereas in the case of P. yoelii, incubated for 44 hours and scored for exoerythrocytic stages.

[3] = system: Plasmodium falciparum; assay: Sporozoite invasion assay, P. falciparum in HepG2-CD81 cells; type: cell-based; conditions: HepG2-CD81, Plasmodium falciparum, 400 uM compound
Protocol: as §1, §2, §3

[4] = molecular target: T1, CD81-LEL (Homo sapiens, UniProt P60033); assay: Surface plasmon resonance binding of ligands to immobilized CD81-LEL; conditions: for Binding (change in response units): 3 min association; for Dissociation 1 (change in response units) / Dissociation 2 (change in response units): dissociation interval
T1 construct: A recombinant form of the CD81-LEL protein with a GST tag; gift of Dr. Shoshana Levy, Stanford University
T1 sequence (P60033 113-201 limits assumed): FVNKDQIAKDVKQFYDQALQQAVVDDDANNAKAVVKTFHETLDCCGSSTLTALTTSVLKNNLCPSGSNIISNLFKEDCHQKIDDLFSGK
Protocol: SPR analysis was performed using a Biacore T200 workstation (GE Healthcare, NJ, USA). A recombinant form of the CD81-LEL protein with a GST tag (generously provided by Dr. Shoshana Levy, Stanford University) was used to confirm, using an established experimental technique, the binding of several ligands to the protein. Briefly, 10 μM CD81-LEL-GST diluted into 10 mM Na-Acetate buffer pH 4.5 was immobilized for 15 min at a flow speed of 5 μl/min onto a CM5 sensor chip using amine-coupling (EDC-NHS), Approximately 20,000 RU of protein were immobilized on the chip. The ligands were prepared as 600 μM solutions in PBS-0.05% Tween-80 (the running buffer) and they were introduced to the protein using a pre-programmed 3 minute association and 1 minute dissociation interval.
SPR analysis was performed using a Biacore T100 workstation (GE Healthcare, NJ, USA). […] Approximately 20,000 RU of protein were immobilized on the chip. The ligands were prepared as 200 uM solutions in PBS-1% DMSO (the running buffer) and they were introduced to the protein using a pre-programmed 3 min association and 1 min dissociation interval.

[5] = system: Plasmodium yoelii; assay: Sporozoite infection assay, P. yoelii in Hepa1-6 cells; type: cell-based
[6] = molecular target: T2, native CD81 on Raji cells (Homo sapiens, UniProt P60033); assay: Antibody neutralizing assay: inhibition of JS-81 anti-CD81 antibody binding on Raji cells (FACS); type: cell-based; conditions: for inhibition at 50 µM / inhibition at 100 µM / inhibition at 400 µM / Inhibition of JS-81 Binding (%): Raji cells; for inhibition at 50 µM / inhibition at 100 µM / inhibition at 400 µM: read-out: Inhibition of JS-81 Binding (%)
T2 construct: endogenous in cells; host or cells: Raji cells (human B cell line)
T2 sequence (P60033 1-236): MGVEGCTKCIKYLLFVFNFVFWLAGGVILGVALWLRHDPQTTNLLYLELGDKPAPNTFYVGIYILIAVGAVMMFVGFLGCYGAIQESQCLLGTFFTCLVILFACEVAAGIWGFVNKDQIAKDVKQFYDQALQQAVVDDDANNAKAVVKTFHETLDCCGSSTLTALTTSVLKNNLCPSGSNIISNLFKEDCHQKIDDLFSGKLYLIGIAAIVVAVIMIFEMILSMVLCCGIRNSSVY
Protocol: For antibody neutralization assay Raji cells were used, a human B cell line that expressed high amounts of CD81 on the surface (data not shown), Cells were grown in RPMI medium (10% FCS, 1% penicillin/streptomycin, 1% L-glutamine, 1% non-essential amino acids, 1% sodium pyruvate, pH 7.4, at 37° C. with 5% CO2). 2×10^5 cells were incubated with or without different concentrations (50 μM, 100 μM, 400 μM and 1 mM) of indicated inhibitor for 20 min at room temperature, subsequently 1 ul (16 ng/μl) of FITC-labeled anti CD81 antibody (BD Pharmingen, 551108) was added to the cells and incubated for 20 min (antibody titration was performed to obtain a working dilution range, data not shown). Cells were washed and analyzed by FACS (BD FACSCalibur, software: Cell Quest Pro). Mean Fluorescence Intensity MFI was calculated using Flowjo software (TreesStar, www.flowjo.com).

Compound | Binding (change in response units) ([4]; SPR) | Dissociation 1 (change in response units) ([4]; SPR) | Dissociation 2 (change in response units) ([4]; SPR) | Inhibition of JS-81 Binding (%) ([6]; 50 μM ligand) | Inhibition of JS-81 Binding (%) ([6]; 100 μM ligand) | Inhibition of JS-81 Binding (%) ([6]; 400 μM ligand) | other results
NC(=O)NC(=O)c1nccnc1C(=O)O [Ligand 117922] | – | – | – | 0% | 12% | 26% | –
CC(=NO)C1CC(CC(=O)O)C1(C)C (stereo not shown) [Ligand 127947] | – | – | – | 0% | 0% | 24% | –
O=C(O)/C=C/C(=O)Nc1cccc2cccnc12 [Ligand 144958] | – | – | – | 0% | 54% | 12% | –
CSc1ccc2c(c1)C(N1CCN(C)CC1)Cc1ccccc1S2 (stereo not shown) [Ligand 281816] | – | – | – | – | – | – | binding to CD81 by SPR (in words) [4]: bind to CD81-LEL; inhibition of anti-CD81 binding (in words) ([6]; 100 uM and 400 uM): inhibit anti-CD81 binding to CD81-LEL in a dose dependent manner

Further lines, with some results ahead:

Binding (change in response units) ([4]; SPR) | Dissociation 1 (change in response units) ([4]; SPR) | Dissociation 2 (change in response units) ([4]; SPR) | Inhibition of JS-81 Binding (%) ([6]; 50 μM ligand) | Inhibition of JS-81 Binding (%) ([6]; 100 μM ligand) | Inhibition of JS-81 Binding (%) ([6]; 400 μM ligand) | Compound | other results
14.3 response units | 18.9 response units | 11.3 response units | – | – | – | O=C(O)Cn1ccc2ccccc21 [Ligand 75866, 2-indol-1-ylacetate] | Percent Infection ([1]; Hepa1-6 Cells, Plasmodium berghei): 135%; effect on infection (in words) ([1]; P. berghei, Hepa1-6 cells): didn't inhibit; Percent Infection ([2]; HepG2-CD81, Plasmodium yoelii, 400 uM compound): 42.6%; effect on infection (in words) ([2]; P. yoelii, HepG2-CD81): inhibit; also recorded: inhibitory effect; Percent Infection [3]: 84.2%; Percent Infection ([5]; Hepa1-6 Cells, Plasmodium yoelii): 122%; effect on infection (in words) ([5]; P. yoelii, Hepa1-6 cells): didn't inhibit
6.7 response units | 16.8 response units | 7.9 response units | – | – | – | O=C(Cn1ccc(=O)[nH]c1=O)Nc1ccc(C(=O)O)c(O)c1 [Ligand 93033, 4-[[2-(2,4-dioxopyrimidin-1-yl)acetyl]amino]-2-hydroxybenzoate] | binding-dissociation behavior (in words) ([4]; SPR): comparable binding and dissociation; inhibition at 50 µM ([6]; 50 μM ligand): 0%; inhibition at 100 µM ([6]; 100 μM ligand): 0%; inhibition at 400 µM ([6]; 400 μM ligand): 16%
36.6 response units | 35.9 response units | 28.1 response units | – | – | – | CC(C)=CCC1=C(OCC(=O)O)C(=O)c2ccccc2C1=O [Ligand 98026, 2-[3-(3-methylbut-2-enyl)-1,4-dioxonaphthalen-2-yl]oxyacetate] | inhibition at 50 µM ([6]; 50 μM ligand): 0%; inhibition at 100 µM ([6]; 100 μM ligand): 0%; inhibition at 400 µM ([6]; 400 μM ligand): 21%
– | – | – | 0% | 0% | 19% | O=C(O)c1cc(O)ccc1N=Nc1ccccc1 [Ligand 106863] | –
– | – | – | 0% | 6% | 26% | NS(=O)(=O)c1ccc(N=Nc2c(O)c(C(=O)O)cc3ccccc23)cc1 [Ligand 134137] | –
